≈ marks a conversion by molar mass, not a printed value.
Tested on: Z. mobilis 8b
Experiment: Furfural MIC for growth of Z. mobilis (plate screening levels given as MIC multiples)
Format: cell-based
Settings: Zymomonas mobilis, 24 h, read-out: MIC 1× (minimum concentration of inhibitor needed for complete inhibition of growth)
Description: Both Z. mobilis 8b and 8b knockout library cultures were revived from glycerol stocks in 20 mL MRMG0.75×0.25 (10 g/L yeast extract, 2 g/L KH2PO4 and 1 g/L MgSO4.7H2O, 7.5 g/L glucose and 2.5 g/L xylose) and also containing […] spectinomycin for 1.5 hours at 35° C., 125 rpm. Cells were centrifuged and resuspended to a final OD600 nm of 0.025 in a 100 mL culture, and grown for an additional 3-4 generations at 35° C. in 125 mL Erlenmeyer flasks with foam enclosures, 125 rpm (about 6 hours). Cells were initially screened on MRMGS (5% w/v glucose) plates containing 0, […], 5, or 7.5 g/L of furfural, equivalent to MICs of 0.75×, 1× or 1.5×. MIC 1× is the minimum (lowest) concentration of inhibitor needed for complete inhibition of growth (RMG2) over a 24-hour period. Approximately 500, 1000 and 2000 colonies were plated in triplicates. Furfural levels were also tested at 0.7, 1.5, 3 or 4 g/L in glucose.

Compound: O=Cc1ccco1 [furfural]
- MIC: 5000 µg/mL (≈ 52 mM)

— patent publication US9206445B2, “Biocatalysts with enhanced inhibitor tolerance” (priority 2013, dated 2015)
